Assay results reported in patent US20240309016A1, “MACROCYCLIC HETEROCYCLE COMPOUNDS AND USE THEREOF” (TAKEDA PHARMACEUTICAL COMPANY LIMITED, priority 2023, published 2024).

Target: T1, human OX2 receptor (Homo sapiens, UniProt O43614)
T1 construct: expressed in transfected cells
T1 sequence (O43614 1-444): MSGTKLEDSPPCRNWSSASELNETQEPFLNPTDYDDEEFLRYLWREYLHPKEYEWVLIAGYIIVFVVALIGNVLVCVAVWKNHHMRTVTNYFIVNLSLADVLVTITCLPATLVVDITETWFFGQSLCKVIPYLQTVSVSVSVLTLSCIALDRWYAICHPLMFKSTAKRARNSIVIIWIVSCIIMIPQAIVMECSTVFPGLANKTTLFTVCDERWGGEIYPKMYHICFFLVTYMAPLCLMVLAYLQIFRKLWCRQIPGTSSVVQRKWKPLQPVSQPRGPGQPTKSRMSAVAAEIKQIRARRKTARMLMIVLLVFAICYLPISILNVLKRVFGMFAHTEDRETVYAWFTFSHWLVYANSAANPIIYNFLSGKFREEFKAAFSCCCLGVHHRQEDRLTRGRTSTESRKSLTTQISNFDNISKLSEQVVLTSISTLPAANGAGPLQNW
Experiment: Measurement of orexin type 2 receptor agonist activity (Experimental Example 2; Fluo-4 AM calcium fluorescence, FDSS μCELL)
Type: cell-based
Settings: compound at 3 μM; CHO cells expressing human OX2 receptor; DMSO = 0%, 10 nM orexin A (human) = 100%
In short: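 Agonism was tested in CHO-K1 cells stably expressing human OX2 receptor (residues 1-444), loaded with Fluo-4 AM plus probenecid. Calcium fluorescence was recorded for 1 min 40 s after compound addition. Activity (%) was scaled between DMSO (0%) and 10 nM orexin A (100%) and reported at 3 μM compound.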

| SMILES | OX2R agonist activity (3 μM, %) [%] |
| --- | --- |
| CCS(=O)(=O)N[C@H]1[C@@H](F)CN2C(=O)NCc3ncc(C)c(n3)Oc3cccc(c3F)C[C@@H]12 [Example 55, N-[(15aS,16R,17S)-17,20-difluoro-7-methyl-1-oxo-2,3,15a,16,17,18-hexahydro-1H,15H-4,8-(azeno)-10,14-(metheno)pyrrolo[1,2-j][1,5,8,10]oxatriazacyclo-heptadecin-16-yl]ethanesulfonamide] | 107 |
| CN(C)S(=O)(=O)N[C@H]1[C@@H](F)CN2C(=O)NCc3ccc(C(F)F)c(n3)Oc3cccc(c3F)C[C@@H]12 [Example 37, N′-[(15aS,16R,17S)-7-(difluoromethyl)-17,20-difluoro-1-oxo-2,3,15a,16,17,18-hexahydro-1H,15H-8,4-(azeno)-10,14-(metheno)pyrrolo[1,2-j][1,8,10]oxadiazacyclo-heptadecin-16-yl]-N,N-dimethylsulfuric diamide] | 101 |
| CS(=O)(=O)N[C@@H]1[C@@H]2Cc3cccc(c3F)Oc3nc(ccc3Cl)CN(CC(F)F)C(=O)N2CC1(F)F [Example 60, N-[(15aS,16R)-7-chloro-2-(2,2-difluoroethyl)-17,17,20-trifluoro-1-oxo-2,3,15a,16,17,18-hexahydro-1H,15H-4,8-(azeno)-14,10-(metheno)pyrrolo[1,2-j][1,8,10]oxadiazacyclo-heptadecin-16-yl]methanesulfonamide] | 104 |
| CO[C@@H]1C[C@H]2C(=O)N3CC(F)(F)[C@H](NS(C)(=O)=O)[C@@H]3Cc3cccc(c3F)Oc3nc(ncc3C)N2C1 [Example 83, N-[(2R,16aS,17R,21aS)-18,18,22-trifluoro-2-methoxy-8-methyl-21-oxo-2,3,16a,17,18,19,21,21a-octahydro-1H,16H-5,9-(azeno)-11,15-(metheno)dipyrrolo[1,2-g:1′,2′-j][1,5,7,10]oxatriazacyclo-heptadecin-17-yl]methanesulfonamide] | 96 |
| Cc1ccc2nc1Oc1cccc(c1F)C[C@H]1[C@@H](NS(=O)(=O)CF)C(F)(F)CN1C(=O)NC2 [Example 19, 1-fluoro-N-[(15aS,16R)-17,17,20-trifluoro-7-methyl-1-oxo-2,3,15a,16,17,18-hexahydro-1H,15H-4,8-(azeno)-10,14-(metheno)pyrrolo[1,2-j][1,8,10]oxadiazacyclo-heptadecin-16-yl]methanesulfonamide] | 109 |
| O=C1NCc2nc(c(Cl)cc2F)Oc2cccc(c2F)C[C@H]2[C@@H](NS(=O)(=O)C3CC3)C(F)(F)CN12 [Example 58, N-[(15aS,16R)-7-chloro-5,17,17,20-tetrafluoro-1-oxo-2,3,15a,16,17,18-hexahydro-1H,15H-4,8-(azeno)-14,10-(metheno)pyrrolo[1,2-j][1,8,10]oxadiazacyclo-heptadecin-16-yl]cyclopropanesulfonamide] | 106 |
| Cc1ccc2nc1Oc1cccc(c1F)C[C@H]1[C@@H](NS(=O)(=O)N(C)C)C(F)(F)CN1C(=O)NC2 [Example 11, N,N-dimethyl-N′-[(15aS,16R)-17,17,20-trifluoro-7-methyl-1-oxo-2,3,15a,16,17,18-hexahydro-1H,15H-4,8-(azeno)-14,10-(metheno)pyrrolo[1,2-j][1,8,10]oxadiazacyclo-heptadecin-16-yl]sulfuric diamide] | 98 |
| CCS(=O)(=O)N[C@@H]1[C@@H]2Cc3cccc(c3F)Oc3nc(cnc3C)CCC(=O)N2CC1(F)F [Example 61, N-[(1R,19aS)-2,2,20-trifluoro-11-methyl-5-oxo-2,3,6,7,19,19a-hexahydro-1H,5H-8,12-(azeno)-18,14-(metheno)pyrrolo[1,2-j][1,4,10]oxadiazacyclo-heptadecin-1-yl]ethanesulfonamide] | 106 |
| CCS(=O)(=O)N[C@H]1[C@@H](F)CN2C(=O)NCc3ccc(Cl)c(c3)Oc3cccc(c3F)C[C@@H]12 [Example 39, N-[(15aS,16R,17S)-7-chloro-17,20-difluoro-1-oxo-2,3,15a,16,17,18-hexahydro-1H,15H-4,8:14,10-di(metheno)pyrrolo[1,2-j][1,8,10]oxadiazacyclo-heptadecin-16-yl]ethanesulfonamide] | 105 |
| CS(=O)(=O)N[C@@H]1[C@@H]2Cc3ccc(F)c(c3)Oc3nc(ccc3Cl)OCC(=O)N2CC1(F)F (relative stereo) [Example 95, N-[rel-(15aS,16R)-7-chloro-11,17,17-trifluoro-1-oxo-1,2,15a,16,17,18-hexahydro-15H-4,8-(azeno)-14,10-(metheno)pyrrolo[1,2-d][1,12,4]dioxazacyclo-heptadecin-16-yl]methanesulfonamide (optical isomer)] | 103 |
| CCS(=O)(=O)N[C@@H]1[C@@H]2Cc3cccc(c3F)Oc3ccc(F)c(n3)CNC(=O)N2CC1(F)F [Example 50, N-[(15aS,16R)-5,17,17,20-tetrafluoro-1-oxo-2,3,15a,16,17,18-hexahydro-1H,15H-4,8-(azeno)-14,10-(metheno)pyrrolo[1,2-j][1,8,10]oxadiazacyclo-heptadecin-16-yl]ethanesulfonamide] | 88 |
| CS(=O)(=O)N[C@@H]1[C@@H]2Cc3cccc(c3F)Oc3nc(cs3)CNC(=O)N2CC1(F)F [Example 85, N-[(14aS,15R)-16,16,19-trifluoro-1-oxo-2,3,14a,15,16,17-hexahydro-1H,14H-4,7-(azeno)-9,13-(metheno)pyrrolo[1,2-i][1,3,7,9]oxathiadiazacyclo-hexadecin-15-yl]methanesulfonamide] | 95 |
| CCS(=O)(=O)N[C@H]1[C@@H](F)CN2C(=O)NCc3ccc(Cl)c(n3)Oc3cccc(c3)C[C@@H]12 [Example 47, N-[(15aS,16R,17S)-7-chloro-17-fluoro-1-oxo-2,3,15a,16,17,18-hexahydro-1H,15H-4,8-(azeno)-14,10-(metheno)pyrrolo[1,2-j][1,8,10]oxadiazacyclo-heptadecin-16-yl]ethanesulfonamide] | 92 |
| CNS(=O)(=O)N[C@@H]1[C@@H]2Cc3cccc(c3F)Oc3nc(ccc3Cl)OCC(=O)N2CC1(F)F [Example 63, N-[(15aS,16R)-7-chloro-17,17,20-trifluoro-1-oxo-1,2,15a,16,17,18-hexahydro-15H-4,8-(azeno)-10,14-(metheno)pyrrolo[1,2-d][1,12,4]dioxazacyclo-heptadecin-16-yl]-N′-methylsulfuric diamide] | 106 |
| CN(C)S(=O)(=O)N[C@@H]1[C@@H]2Cc3cccc(c3F)Oc3nc(ccc3Cl)CNC(=O)N2CC1(F)F [Example 13, N′-[(15aS,16R)-7-chloro-17,17,20-trifluoro-1-oxo-2,3,15a,16,17,18-hexahydro-1H,15H-4,8-(azeno)-14,10-(metheno)pyrrolo[1,2-j][1,8,10]oxadiazacyclo-heptadecin-16-yl]-N,N-dimethylsulfuric diamide] | 99 |
| CCS(=O)(=O)N[C@H]1[C@@H](F)CN2C(=O)COc3ncc(C)c(n3)Oc3cccc(c3)C[C@@H]12 [Example 71, N-[(15aS,16R,17S)-17-fluoro-7-methyl-1-oxo-1,2,15a,16,17,18-hexahydro-15H-4,8-(azeno)-10,14-(metheno)pyrrolo[2,1-n][1,7,3,15]dioxadiazacyclo-heptadecin-16-yl]ethanesulfonamide] | 99 |
| CS(=O)(=O)N[C@H]1[C@@H](F)CN2C(=O)NCc3ccc(Cl)c(c3)Oc3cccc(c3F)C[C@@H]12 [Example 12, N-[(15aS,16R,17S)-7-chloro-17,20-difluoro-1-oxo-2,3,15a,16,17,18-hexahydro-1H,15H-4,8:14,10-di(metheno)pyrrolo[1,2-j][1,8,10]oxadiazacyclo-heptadecin-16-yl]methanesulfonamide] | 99 |
| CCS(=O)(=O)N[C@@H]1[C@@H]2Cc3cccc(c3F)Oc3nc(ccc3OC)CNC(=O)N2CC1(F)F [Example 26, N-[(15aS,16R)-17,17,20-trifluoro-7-methoxy-1-oxo-2,3,15a,16,17,18-hexahydro-1H,15H-4,8-(azeno)-10,14-(metheno)pyrrolo[1,2-j][1,8,10]oxadiazacyclo-heptadecin-16-yl]ethanesulfonamide] | 102 |
| CS(=O)(=O)N[C@@H]1[C@@H]2Cc3cccc(c3)Oc3nc(ccc3Cl)OCC(=O)N2CC1(F)F [Example 96, N-[(15aS,16R)-7-chloro-17,17-difluoro-1-oxo-1,2,15a,16,17,18-hexahydro-15H-4,8-(azeno)-14,10-(metheno)pyrrolo[1,2-d][1,12,4]dioxazacyclo-heptadecin-16-yl]methanesulfonamide] | 107 |
| O=C1NCc2ccc(C(F)F)c(n2)Oc2cccc(c2F)C[C@H]2[C@@H](NS(=O)(=O)C3CC3)[C@@H](F)CN12 [Example 28, N-[(15aS,16R,17S)-7-(difluoromethyl)-17,20-difluoro-1-oxo-2,3,15a,16,17,18-hexahydro-1H,15H-8,4-(azeno)-10,14-(metheno)pyrrolo[1,2-j][1,8,10]oxadiazacyclo-heptadecin-16-yl]cyclopropanesulfonamide] | 94 |
